Data published in patent publication EP0246786A1, “N-1 subsituted sulfonylaminocarbonyl, C-4 substituted monobactams” (THE UPJOHN COMPANY, priority 1986, dated 1987).
In brackets after ≈: the same amount, converted by molar mass. Structures can show the parent of a compound that is named as a salt. Where two headings read alike, the source gives them in different places.

How the values were obtained:
Assay in all cases: MIC by agar dilution (in vitro antimicrobial testing)
Type in all cases: cell-based
E. coli = details: Escherichia coli, 20 h, 35°C, read-out: Minimum Inhibitory Concentration
Description: (§1) Compounds of the invention are tested for in vitro antimicrobial activity using standard testing procedures such as the determination of minimum inhibitory concentration (MIC) by agar dilution as described in "Methods for Dilution Antimicrobial Susceptibility Tests for Bacteria That Grow Aerobically" (MF-T) Published January 1983 by the National Committee for Clinical Laboratory Standards, 771 East Lancaster Avenue, Villanova, PA 19084. Briefly, MIC values are determined in unsupple- mented Mueller Hinton Agar (MHA). The compounds tested are diluted serially into molten MHA at 47°C. The agar is poured into petri dishes and allowed to harden. The various bacteria used for testing are grown overnight on MHA at 35°C and transferred to Tryptiease Soy Broth (TSB) until a turbidity of 0.5 McFarland standard is obtained. The bacteria are diluted one to twenty in TSB and inoculated on the plates (1 µl using a Steers replicator).

K. oxytoca = details: Klebsiella oxytoca, read-out: Minimum Inhibitory Concentration
Description: as §1

K.pneumoniae = details: Klebsiella pneumoniae, read-out: Minimum Inhibitory Concentration
Description: as §1

Ps. aeruginosa = details: Pseudomonas aeruginosa, 20 h, 35°C, read-out: Minimum Inhibitory Concentration
Description: as §1

[1] = E. coli Culture No. 9379, Mueller Hinton Agar
[2] = E. coli Culture No. 9380, Mueller Hinton Agar
[3] = E. coli Culture No. 9451, Mueller Hinton Agar
[4] = Ps. aeruginosa Culture No. 231, Mueller Hinton Agar
[5] = Ps. aeruginosa Culture No. 6432, Mueller Hinton Agar
[6] = Ps. aeruginosa Culture No. 9191, Mueller Hinton Agar

Row | SMILES | MIC (E. coli; [1]) | MIC (E. coli; [2]) | MIC (E. coli; [3]) | MIC (K. oxytoca; K. oxytoca Culture No. 9384, Mueller Hinton Agar, 35°C, 20 hours) | MIC (K.pneumoniae; K.pneumoniae Culture No. 58, Mueller Hinton Agar, 35°C, 20 hours) | MIC (Ps. aeruginosa; [4]) | MIC (Ps. aeruginosa; [5]) | MIC (Ps. aeruginosa; [6]) | MIC (K. oxytoca; 20 h) | MIC (K.pneumoniae; 20 h)
1 | COC(=O)OC[C@@H]1[C@H](NC(=O)/C(=N\OCC(=O)O)c2csc(N)n2)C(=O)N1C(=O)NS(=O)(=O)N1CCN(NC(=O)c2cc(=O)c(O)c[nH]2)C1=O (racemic) [Compound A, cis-(±)-3-[2-(2-Amino-4-thiazolyl)-(Z)-2-(carboxy-methoxyimino)acetamido]-1-[(5-hydroxy-4-pyridon-2-yl)carbonylamino-1-(2-imidazolidone-3-yl)sulfonylaminocarbonyl]-4-[(methoxycarbonyl)-oxymethyl]-2-azetidinone, dipotassium salt] | ≤ 0.015 µg/mL | ≤ 0.015 µg/mL | ≤ 0.015 µg/mL | 0.06 µg/mL | 1 µg/mL | 4 µg/mL | 1 µg/mL | 4 µg/mL |  | 
2 | CC1C(NC(=O)C(=NOC(C)(C)C(=O)O)c2csc(N)n2)C(=O)N1S(=O)(=O)O (stereo not shown) [Compound B, 2-[[[1-(2-amino-4-thiazolyl)-2-[(2-methyl-4-oxo-1-sulfo-3-azetidinyl)amino]-2-oxoethylidene]amino]oxy]-2-methylpropanoic acid] | 0.03 µg/mL (≈ 0.0689 µM) | 0.06 µg/mL (≈ 0.138 µM) | 0.06 µg/mL (≈ 0.138 µM) |  |  | 8 µg/mL (≈ 18.4 µM) | 8 µg/mL (≈ 18.4 µM) | 2 µg/mL (≈ 4.59 µM) | 0.03 µg/mL (≈ 0.0689 µM) | 0.03 µg/mL (≈ 0.0689 µM)
